The values that follow come from patent publication US20070276011A1, “Plasminogen Activator Inhibitor-1 Inhibitor” (priority 2003, published 2007).

A value given as a limit tells only on which side of the number the result lay.

The target of the first test is recombinant human PAI-1 (Homo sapiens, UniProt P05121). As to the kind of experiment: PAI-1 inhibitory activity, Test Method A (tPA fluorogenic substrate, Tris buffer pH8.0, 37 C). In kind it is biochemical. Particulars: 25 μM test compound; Test Method A.
Sequence of recombinant human PAI-1 (P05121 24-402): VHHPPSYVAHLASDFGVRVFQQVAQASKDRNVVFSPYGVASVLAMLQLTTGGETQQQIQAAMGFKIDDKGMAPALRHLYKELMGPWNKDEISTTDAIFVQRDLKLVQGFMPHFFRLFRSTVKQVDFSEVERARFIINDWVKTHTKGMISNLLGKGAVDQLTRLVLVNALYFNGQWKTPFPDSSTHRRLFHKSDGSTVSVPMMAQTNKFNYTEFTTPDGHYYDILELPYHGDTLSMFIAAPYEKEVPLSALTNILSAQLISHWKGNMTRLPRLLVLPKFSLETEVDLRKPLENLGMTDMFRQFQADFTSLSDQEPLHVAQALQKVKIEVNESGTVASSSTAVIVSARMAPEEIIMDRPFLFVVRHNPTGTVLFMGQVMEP
For `COc1cc(NC(=O)c2cc(C=C3SC(=O)N(Cc4ccc(Cl)c(Cl)c4)C3=O)ccc2O)cc(C(F)(F)F)c1` [compound 451, 5-{4-hydroxy-3-[3-methoxy-5-(trifluoromethyl)phenylcarbamoyl]-benzylidene}-3-(3,4-dichlorobenzyl)thiazolidine-2,4-dione], the “Inhibitory Ratio at 25 μM (%)” value is more than 99%. On the same count and under the same terms, next, `O=C1SC(=Cc2ccc(O)c(O)c2)C(=O)N1Cc1cccc(Nc2ccccc2)c1` [compound 318, 5-(3,4-Dihydroxybenzylidene)-3-[3-(phenylamino)benzyl]thiazolidine-2,4-dione]: more than 99%; `CC(C)C1=NN(c2ccc(C(=O)O)cc2)C(=O)C1=Cc1cc(C=Cc2ccccc2)ccc1O` [compound 534]: 64%; `CCOC1=NN(c2ccc([N+](=O)[O-])cc2)C(=O)C1=Cc1c(O)cccc1OC` [compound 550, 4-(2-hydroxy-6-methoxybenzylidene)-1-(4-nitrophenyl)-3-ethoxy-2-pyrazolin-5-one]: 66%. Same read-out and setting: next, `COc1cc(C=C2SC(=O)N(Cc3ccc(Cl)c(Cl)c3)C2=O)ccc1Cl` [compound 327, 5-(3-methoxy-4-chlorobenzylidene)-3-(3,4-dichlorobenzyl)-thiazolidine-2,4-dione]: 61%; `O=C(Nc1cc(C(F)(F)F)cc(C(F)(F)F)c1)c1cc(C=C2SC(=O)N(Cc3ccc(Cl)c(Cl)c3)C2=O)ccc1O` [compound 404]: more than 99%. On the same count and under the same terms, next, `O=C(O)c1cc(C=C2SC(=O)N(Cc3ccc(Cl)c(Cl)c3)C2=O)cc(O)c1O` [compound 464, 5-(3,4-dihydroxy-5-carboxybenzylidene)-3-(3,4-dichlorobenzyl)-thiazolidine-2,4-dione]: more than 99%; `COC(=O)c1cccc(NC(=O)c2cc(C=C3SC(=O)N(Cc4ccc(Cl)c(Cl)c4)C3=O)cc(O)c2O)c1` [compound 470]: 95%. Turning to `CCOC(=O)Oc1ccc(C=C2SC(=O)N(Cc3ccc(Cl)cc3Cl)C2=O)cc1OC(=O)OCC` [compound 337], the “Inhibitory Ratio at 25 μM (%)” value was 43%. On the same count and under the same terms, next, `COc1ccc(C=Cc2ccccc2)cc1C=C1C(=O)N(c2ccc(C(=O)O)cc2)N=C1C(C)C` [compound 535]: 75%. In the case of `COc1cccc(NC(=O)c2cc(C=C3SC(=O)N(Cc4ccc(Cl)c(Cl)c4)C3=O)ccc2O)c1` [compound 355, 5-[4-hydroxy-3-(3-methoxyphenylcarbamoyl)benzylidene]-3-(3,4-dichlorobenzyl)thiazolidine-2,4-dione], the “Inhibitory Ratio at 25 μM (%)” value is recorded as more than 99%. `O=C1SC(=Cc2ccc(O)c(F)c2)C(=O)N1Cc1ccc(Cl)c(Cl)c1` [compound 332]: the “Inhibitory Ratio at 25 μM (%)” value is more than 99%. For `CCN(CC)c1ccc(O)c(C=C2C(=O)N(c3ccc(Cl)c(Cl)c3)N=C2C(C)C)c1` [compound 560], the “Inhibitory Ratio at 25 μM (%)” value is more than 99%. Same read-out and setting: as for `O=C1C(=Cc2cc(O)c(O)c(O)c2)SC(=S)N1Cc1ccc(Cl)c(Cl)c1` [compound 303], the figure is more than 99%; as for `CCOC1=NN(c2ccc([N+](=O)[O-])cc2)C(=O)C1=Cc1cc(C(C)(C)C)ccc1O` [compound 548], 32%.

For `COc1cc(C=C2SC(=O)N(Cc3ccc(Cl)c(Cl)c3)C2=O)cc(C(=O)O)c1O` [compound 345, 5-(3-Methoxy-4-hydroxy-5-carboxybenzlidene)-3-(3,4-dichlorobenzyl)thiazolidine-2,4-dione], the “Inhibitory Ratio at 25 μM (%)” value is 89%. Same read-out and setting: as for `COc1ccc(NC(=O)c2cc(C=C3SC(=O)N(Cc4cc(C(F)(F)F)ccc4C(F)(F)F)C3=O)ccc2O)cc1OC` [compound 372, 5-[4-Hydroxy-3-(3,4-dimethoxyphenylcarbamoyl)benzylidene]-3-[2,5-bis(trifluoromethyl)benzyl]thiazolidine-2,4-dione], the figure is more than 99%; as for `O=C(Nc1cccc2c1OC(F)(F)O2)c1cc(C=C2SC(=O)N(Cc3ccc(Cl)c(Cl)c3)C2=O)ccc1O` [compound 460], 57%; as for `CCOC(=O)CCC1=NN(c2ccccc2)C(=O)C1=Cc1cc(O)c(O)cc1O` [compound 514], 56%. On the same count and under the same terms, next, `COc1ccc(NC(=O)c2cccc(C=C3SC(=O)N(Cc4ccc(Cl)c(Cl)c4)C3=O)c2)cc1OC` [compound 357]: 82%. As to `O=C(Cc1ccccc1)Nc1ccc(CN2C(=O)SC(=Cc3cccc(O)c3O)C2=O)cc1` [compound 313, 5-(2,3-Dihydroxybenzylidene)-3-[4-(phenylacetylamino)benzyl]-thiazolidine-2,4-dione], the “Inhibitory Ratio at 25 μM (%)” value was 73%.

As for `O=C1SC(=Cc2cn(Cc3ccc(OCc4ccccc4)c(OCc4ccccc4)c3)c3ccccc23)C(=O)N1Cc1ccc(Cl)c(Cl)c1` [compound 411, 5-[1-(3,4-dibenzyloxybenzyl)indol-3-ylmethylene]-3-(3,4-dichlorobenzyl)thiazolidine-2,4-dione], the “Inhibitory Ratio at 25 μM (%)” value turned out to be 95%.

As for `COC(=O)c1cccc(NC(=O)c2cc(C=C3SC(=O)N(Cc4ccc(Cl)c(Cl)c4)C3=O)ccc2O)c1` [compound 417, 5-{4-hydroxy-3-[3-(methoxycarbonyl)phenylcarbamoyl]benzylidene}-3-(3,4-dichlorobenzyl)thiazolidine-2,4-dione], the “Inhibitory Ratio at 25 μM (%)” value is listed as 59%.

Still in this test, the particulars now being: 50% inhibitory concentration of PAI-1 activity, according to the aforementioned method.
Consider `O=C1C(=Cc2cc(O)c(O)c(O)c2)SC(=S)N1Cc1ccc(Cl)c(Cl)c1` [compound 303], for which the IC50 (in general, the concentration that inhibits the measured activity by half) stood at 0.39 µM.

Still in this test, the particulars now being: test compound 25 μM; Test Method A.
On to `CC1=NN(c2cccc(C(=O)O)c2)C(=O)C1=Cc1ccccc1` [compound 172], for which the “Inhibitory Ratio at 25 μM (%)” value is on record as 32%. Still for that read-out and setting: next, `O=C1C(=Cc2ccc(-c3cc([N+](=O)[O-])ccc3O)o2)C(O)=NN1c1cccc(Cl)c1` [compound 165]: 29%. The same measure, in the same setting: next, `O=C1C(=Cc2cc(Br)cc(Br)c2O)C(O)=NN1c1ccccc1` [compound 101]: 28%; `O=C(O)c1ccc(Cl)c(-c2ccc(C=C3C(=O)N(c4cccc(C(F)(F)F)c4)N=C3O)o2)c1` [compound 220]: more than 99%. Still for that read-out and setting: next, `CC(C)C1=NN(c2ccc(Cl)c(Cl)c2)C(=O)C1=Cc1cc(O)c(O)c(O)c1` [compound 134, 4-(3,4,5-Trihydroxybenzylidene)-1-(3,4-dichlorophenyl)-3-isopropyl-2-pyrazolin-5-one]: more than 99%; `CC(C)C1=NN(c2cc(Cl)cc(Cl)c2)C(=O)C1=Cc1cc(Br)cc(Br)c1O` [compound 105]: more than 99%.

Take `O=C1SC(=Cc2ccc(O)c(O)c2)C(=O)N1Cc1ccc(-c2ccccc2)cc1` [compound 21]: the “Inhibitory Ratio at 25 μM (%)” value was more than 99%. The same measure, in the same setting: next, `O=C1SC(=Cc2cccc(O)c2O)C(=O)N1Cc1cccc(Br)c1` [compound 34, 5-(2,3-Dihydroxybenzylidene)-3-(3-bromobenzyl)thiazolidine-2,4-dione]: more than 99%; `CCOc1cc(C=C2C(=O)N(c3cccc(C(=O)O)c3)N=C2C)ccc1OC(=O)c1cccs1` [compound 103]: more than 99%; `O=C1C(=Cc2ccc(-c3cc(Cl)cc(Cl)c3)o2)C(C(F)(F)F)=NN1c1cccc([N+](=O)[O-])c1` [compound 182]: 90%. As for `COc1ccc(N2C(=O)C(=Cc3ccc(O)c(O)c3)SC2=S)cc1OC` [compound 76, 5-(3,4-Dihydroxybenzylidene)-3-(3,4-dimethoxyphenyl)rhodanine], the “Inhibitory Ratio at 25 μM (%)” value stood at 56%. Regarding `O=C1SC(=Cc2ccc(O)c(O)c2)C(=O)N1Cc1ccc(Cl)c(Cl)c1` [compound 9], the “Inhibitory Ratio at 25 μM (%)” value was more than 99%. The same measure, in the same setting: as for `CC1=NN(c2ccc([N+](=O)[O-])cc2)C(=O)C1=Cc1cc(O)c(O)c(O)c1` [compound 135], the figure is 94%; as for `O=C1SC(=Cc2ccc([N+](=O)[O-])c(O)c2)C(=O)N1Cc1ccc(Cl)c(Cl)c1` [compound 87, 5-(3-hydroxy-4-nitrobenzylidene)-3-(3,4-dichlorobenzyl)-thiazolidine-2,4-dione], more than 99%; as for `O=C1SC(=Cc2ccc(O)c(O)c2O)C(=O)N1Cc1ccc(Cl)c(Cl)c1` [compound 29], 68%. On the same count and under the same terms, as for `CC1=NN(c2cccc(Cl)c2)C(=O)C1=Cc1ccc(O)c(O)c1` [compound 117], the figure is 46%; as for `CC1=NN(c2cccc(Cl)c2)C(=O)C1=Cc1cc(O)c(O)c(O)c1` [compound 123], 67%. The same measure, in the same setting: as for `O=C1C(=Cc2cc(O)c(O)c(O)c2)C(C(F)(F)F)=NN1c1cc(Cl)cc(Cl)c1` [compound 149], the figure is more than 99%. Take `CC1=NN(c2ccccc2)C(=O)C1=Cc1ccc(-c2cc(C(=O)O)ccc2Cl)o1` [compound 163]: the “Inhibitory Ratio at 25 μM (%)” value was determined as 54%. Same read-out and setting: as for `O=C1C(=Cc2ccc(O)c(O)c2O)C(C(F)(F)F)=NN1c1cc(Cl)cc(Cl)c1` [compound 150], the figure is more than 99%. Take `CC(C)C1=NN(c2cccc(C(=O)O)c2)C(=O)C1=Cc1ccc(-c2cc(Cl)cc(Cl)c2)o1` [compound 211]: the “Inhibitory Ratio at 25 μM (%)” value came to 31%.

Take `Cc1cc(C)cc(CN2C(=O)SC(=Cc3cccc(O)c3O)C2=O)c1` [compound 26, 5-(2,3-Dihydroxybenzylidene)-3-(3,5-dimethylbenzyl)thiazolidine-2,4-dione]: the “Inhibitory Ratio at 25 μM (%)” value is given as more than 99%. As to `O=C(O)c1cccc(N2N=C(c3ccccc3)C(=Cc3ccccc3)C2=O)c1` [compound 175], the “Inhibitory Ratio at 25 μM (%)” value came out at 35%. Same read-out and setting: as for `CC1=NN(c2cccc(C(=O)O)c2)C(=O)C1=Cc1ccc(-c2ccc(C)c(Cl)c2)o1` [compound 187], the figure is 54%; as for `O=C1C(=Cc2cc(Cl)ccc2O)SC(=S)N1c1ccccc1` [compound 65], 21%; as for `O=C1SC(=Cc2ccc(O)c(O)c2)C(=O)N1Cc1ccc(C(F)(F)F)cc1` [compound 44], more than 99%.

For the compound `CC1=NN(c2cccc(C(F)(F)F)c2)C(=O)C1=Cc1ccc(O)c(O)c1` [compound 113], the “Inhibitory Ratio at 25 μM (%)” value is reported as 68%.
